Laboratory results: ChEMBL document CHEMBL1123050, “New cysteamine (2-chloroethyl)nitrosoureas. Synthesis and preliminary antitumor results” (1985)

How the values were obtained:
Mus musculus [1] = assay: Number of survivors/ number of animals tested at the dose of 60 mg/Kg, iv; 4/6; type: functional
Mus musculus [2] = assay: Antitumor activity was evaluated against L1210 leukemia, injected intravenously at a dose umol/kg; infinity-50-100%survivals; type: functional, organism-based
Mus musculus [3] = assay: (§1) Number of survivors/ number of animals tested at the dose of 20 mg/Kg, iv; 0/6; type: functional
Mus musculus [4] = assay: Antitumor activity was evaluated against L1210 leukemia, injected intravenously at a dose umol/kg; type: functional
Mus musculus [5] = assay: (§2) Number of survivors/ number of animals tested at the dose of 40 mg/Kg, iv; 6/6; type: functional
Mus musculus [6] = assay: Number of survivors/ number of animals tested at the dose of 80 mg/Kg, iv; 0/6; type: functional
Mus musculus [7] = assay: Antitumor activity was evaluated against L1210 leukemia, injected intravenously at a dose umol/kg, survivors/6; type: functional
L1210 [8] = assay: Antitumor activity was evaluated against L1210 leukemia, injected intraperitoneally at a dose 120 umol/kg; type: functional, Mus musculus
L1210 [9] = assay: Number of survivors/ number of animals tested at the dose of 125 mg/Kg; 0/6; type: functional, Mus musculus
L1210 [10] = assay: Antitumor activity was evaluated against L1210 leukemia, injected intraperitoneally at a dose 50 umol/kg; infinity-50-100%survivals; type: functional, cell-based; settings: Mus musculus
L1210 [11] = assay: Number of survivors/ number of animals tested at the dose of 75 mg/Kg; 6/6; type: functional, Mus musculus
L1210 [12] = assay: Antitumor activity was evaluated against L1210 leukemia, injected intraperitoneally at a dose 95 umol/kg; infinity-50-100%survivals; type: functional, cell-based; settings: Mus musculus
L1210 [13] = assay: Number of survivors/ number of animals tested at the dose of 95 mg/Kg; 3/6; type: functional, Mus musculus
L1210 [14] = assay: Antitumor activity was evaluated against L1210 leukemia, injected intraperitoneally at a dose 25 umol/kg; type: functional, Mus musculus
L1210 [15] = assay: Number of survivors/ number of animals tested at the dose of 50 mg/Kg; 6/6; type: functional, Mus musculus
L1210 [16] = assay: Number of survivors/ number of animals tested at the dose of 25 mg/Kg; 0/6; type: functional, Mus musculus
L1210 [17] = assay: Antitumor activity was evaluated against L1210 leukemia, injected intraperitoneally at a dose 75 umol/kg; infinity-50-100%survivals; type: functional, cell-based; settings: Mus musculus
Mus musculus [18] = assay: Number of survivors/ number of animals tested at the dose of 40 mg/Kg, iv; 0/6; type: functional
Mus musculus [19] = assay: Antitumor activity was evaluated against L1210 leukemia, injected intravenously at a dose 40 umol/kg; type: functional
Mus musculus [20] = assay: Number of survivors/ number of animals tested at the dose of 125 mg/Kg, iv; 6/6; type: functional
Mus musculus [21] = assay: Antitumor activity was evaluated against L1210 leukemia, injected intravenously at a dose 80 umol/kg; type: functional
Mus musculus [22] = assay: Number of survivors/ number of animals tested at the dose of 80 mg/Kg; 6/6; type: functional
Mus musculus [23] = assay: Number of survivors/ number of animals tested at the dose of 40 mg/Kg; 2/6; type: functional
Mus musculus [24] = assay: Number of survivors/ number of animals tested at the dose of 125 mg/Kg; 6/6; type: functional
Mus musculus [25] = assay: Antitumor activity was evaluated against L1210 leukemia, injected intraperitoneally at a dose 210 umol/kg; type: functional
L1210 [26] = assay: (§3) Antitumor activity was evaluated against L1210 leukemia, injected intraperitoneally at a dose 40 umol/kg; type: functional, Mus musculus
Mus musculus [27] = assay: Number of survivors/ number of animals tested at the dose of 210 mg/Kg; 3/6; type: functional
Mus musculus [28] = assay: Number of survivors/ number of animals tested at the dose of 165 mg/Kg; 5/6; type: functional
Mus musculus [29] = assay: Number of survivors/ number of animals tested at the dose of 165 mg/Kg; 6/6; type: functional
Mus musculus [30] = assay: Number of survivors/ number of animals tested at the dose of 210 mg/Kg; 0/6; type: functional
Mus musculus [31] = assay: Antitumor activity was evaluated against L1210 leukemia, injected intravenously at a dose 195 umol/kg; infinity-50-100%survivals; type: functional, organism-based
Mus musculus [32] = assay: Antitumor activity was evaluated against L1210 leukemia, injected intraperitoneally at a dose 155 umol/kg; infinity-50-100%survivals; type: functional, organism-based
Mus musculus [33] = assay: Antitumor activity was evaluated against L1210 leukemia, injected intraperitoneally at a dose 195 umol/kg; infinity-50-100%survivals; type: functional, organism-based
Mus musculus [34] = assay: Antitumor activity was evaluated against L1210 leukemia, injected intravenously at a dose 115 umol/kg; infinity-50-100%survivals; type: functional, organism-based
Mus musculus [35] = assay: Antitumor activity was evaluated against L1210 leukemia, injected intraperitoneally at a dose 80 umol/kg; infinity-50-100%survivals; type: functional, organism-based
Mus musculus [36] = assay: Antitumor activity was evaluated against L1210 leukemia, injected intraperitoneally at a dose 115 umol/kg; infinity-50-100%survivals; type: functional, organism-based
Mus musculus [37] = assay: Antitumor activity was evaluated against L1210 leukemia, injected intravenously at a dose 155 umol/kg; infinity-50-100%survivals; type: functional, organism-based
Mus musculus [38] = assay: Antitumor activity was evaluated against L1210 leukemia, injected intravenously at a dose 40-250 umol/kg; type: functional
Mus musculus [39] = assay: Antitumor activity was evaluated against L1210 leukemia, injected intraperitoneally at a dose 295 umol/kg; type: functional
Mus musculus [40] = assay: Number of survivors/ number of animals tested at the dose of 235 mg/Kg, iv; 5/6; type: functional
Mus musculus [41] = assay: Number of survivors/ number of animals tested at the dose of 155 mg/Kg, ip; 6/6; type: functional
Mus musculus [42] = assay: Number of survivors/ number of animals tested at the dose of 115 mg/Kg, iv; 6/6; type: functional
Mus musculus [43] = assay: Antitumor activity was evaluated against L1210 leukemia, injected intravenously at a dose 235 umol/kg; type: functional
Mus musculus [44] = assay: Number of survivors/ number of animals tested at the dose of 235 mg/Kg, ip; 0/6; type: functional
Mus musculus [45] = assay: as §3; type: functional
Mus musculus [46] = assay: Number of survivors/ number of animals tested at the dose of 115 mg/Kg, ip; 6/6; type: functional
Mus musculus [47] = assay: Number of survivors/ number of animals tested at the dose of 195 mg/Kg, ip; 5/6; type: functional
Mus musculus [48] = assay: Number of survivors/ number of animals tested at the dose of 40 mg/Kg, ip; 0/6; type: functional
Mus musculus [49] = assay: Number of survivors/ number of animals tested at the dose of 195 mg/Kg, iv; 5/6; type: functional
Mus musculus [50] = assay: Number of survivors/ number of animals tested at the dose of 155 mg/Kg, iv; 6/6; type: functional
Mus musculus [51] = assay: Number of survivors/ number of animals tested at the dose of 80 mg/Kg, ip; 5/6; type: functional
L1210 [52] = assay: Number of survivors/ number of animals tested at the dose of 120 mg/Kg, iv; 0/6; type: functional, Mus musculus
L1210 [53] = assay: as §2; type: functional, Mus musculus
L1210 [54] = assay: as §1; type: functional, Mus musculus
Mus musculus [55] = assay: Antitumor activity was evaluated against L1210 leukemia, injected intravenously at a dose 120 umol/kg; type: functional
Mus musculus [56] = assay: Antitumor activity was evaluated against L1210 leukemia, injected intravenously at a dose 20 umol/kg; type: functional
L1210 [57] = assay: Number of survivors/ number of animals tested at the dose of 80 mg/Kg, iv; 1/6; type: functional, Mus musculus
L1210 [58] = assay: Number of survivors/ number of animals tested at the dose of 60 mg/Kg, iv; 6/6; type: functional, Mus musculus
Mus musculus [59] = assay: Antitumor activity was evaluated against L1210 leukemia, injected intravenously at a dose 210 umol/kg; infinity-50-100%survivals; type: functional, organism-based
Mus musculus [60] = assay: Antitumor activity was evaluated against L1210 leukemia, injected intravenously at a dose 125 umol/kg; infinity-50-100%survivals; type: functional, organism-based
Mus musculus [61] = assay: Antitumor activity was evaluated against L1210 leukemia, injected intraperitoneally at a dose 165 umol/kg; infinity-50-100%survivals; type: functional, organism-based
Mus musculus [62] = assay: Antitumor activity was evaluated against L1210 leukemia, injected intraperitoneally at a dose 125 umol/kg; infinity-50-100%survivals; type: functional, organism-based
Mus musculus [63] = assay: Antitumor activity was evaluated against L1210 leukemia, injected intravenously at a dose 165 umol/kg; infinity-50-100%survivals; type: functional, organism-based

## C[S+]([O-])CCNC(=O)N(CCCl)N=O (stereo unspecified)
Mus musculus [1]
  Survivors: 4
Mus musculus [2]
  T/C x100: infinity-50-100%survivals
Mus musculus [3]
  Survivors: 0
Mus musculus [4]
  T/C x100: 190
Mus musculus [5]
  Survivors: 6
Mus musculus [6]
  Survivors: 0
Mus musculus [7]
  T/C x100: 190

## O=NN(CCCl)C(=O)NCCSSCCN(N=O)C(=O)NCCCl.O=NN(CCSSCCN(N=O)C(=O)NCCCl)C(=O)NCCCl
L1210 [8]
  T/C x100: 125
L1210 [9]
  Survivors: 0
L1210 [10]
  T/C x100: infinity-50-100%survivals
L1210 [11]
  Survivors: 6
L1210 [12]
  T/C x100: infinity-50-100%survivals
L1210 [13]
  Survivors: 3
L1210 [14]
  T/C x100: 250
L1210 [15]
  Survivors: 6
L1210 [16]
  Survivors: 0
L1210 [17]
  T/C x100: infinity-50-100%survivals

## C[S+]([O-])CCN(N=O)C(=O)NCCCl.C[S+]([O-])CCNC(=O)N(CCCl)N=O (stereo unspecified) [listing 1 of 2 here]
Mus musculus [18]
  Survivors: 0
Mus musculus [19]
  T/C x100: 170
Mus musculus [20]
  Survivors: 6
Mus musculus [21]
  T/C x100: 270
Mus musculus [22]
  Survivors: 6
Mus musculus [23]
  Survivors: 2
Mus musculus [24]
  Survivors: 6
Mus musculus [25]
  T/C x100: 295
Mus musculus [6]
  Survivors: 0
L1210 [26]
  T/C x100: 300
Mus musculus [27]
  Survivors: 3
Mus musculus [28]
  Survivors: 5
Mus musculus [29]
  Survivors: 6
Mus musculus [30]
  Survivors: 0

## CS(=O)(=O)CCN(N=O)C(=O)NCCCl.CS(=O)(=O)CCNC(=O)N(CCCl)N=O [listing 1 of 2 here]
Mus musculus [31]
  T/C x100: infinity-50-100%survivals
Mus musculus [32]
  T/C x100: infinity-50-100%survivals
Mus musculus [33]
  T/C x100: infinity-50-100%survivals
Mus musculus [34]
  T/C x100: infinity-50-100%survivals
Mus musculus [35]
  T/C x100: infinity-50-100%survivals
Mus musculus [36]
  T/C x100: infinity-50-100%survivals
Mus musculus [37]
  T/C x100: infinity-50-100%survivals

## C[S+]([O-])CCN(N=O)C(=O)NCCCl (stereo unspecified)
Mus musculus [38]
  T/C x100: <125

## CS(=O)(=O)CCN(N=O)C(=O)NCCCl.CS(=O)(=O)CCNC(=O)N(CCCl)N=O [listing 2 of 2 here]
Mus musculus [39]
  T/C x100: 410
Mus musculus [18]
  Survivors: 0
Mus musculus [40]
  Survivors: 5
Mus musculus [19]
  T/C x100: 190
Mus musculus [41]
  Survivors: 6
Mus musculus [42]
  Survivors: 6
Mus musculus [43]
  T/C x100: 290
Mus musculus [21]
  T/C x100: 230
Mus musculus [44]
  Survivors: 0
Mus musculus [45]
  T/C x100: 190
Mus musculus [46]
  Survivors: 6
Mus musculus [6]
  Survivors: 0
Mus musculus [47]
  Survivors: 5
Mus musculus [48]
  Survivors: 0
Mus musculus [49]
  Survivors: 5
Mus musculus [50]
  Survivors: 6
Mus musculus [51]
  Survivors: 5

## CS(=O)(=O)CCN(N=O)C(=O)NCCCl
Mus musculus [38]
  T/C x100: <125

## CS(=O)(=O)CCNC(=O)N(CCCl)N=O
L1210 [52]
  Survivors: 0
L1210 [53]
  Survivors: 6
L1210 [54]
  Survivors: 0
Mus musculus [55]
  T/C x100: 190
Mus musculus [56]
  T/C x100: 200
L1210 [57]
  Survivors: 1
Mus musculus [21]
  T/C x100: 300
L1210 [58]
  Survivors: 6

## C[S+]([O-])CCN(N=O)C(=O)NCCCl.C[S+]([O-])CCNC(=O)N(CCCl)N=O (stereo unspecified) [listing 2 of 2 here]
Mus musculus [59]
  T/C x100: infinity-50-100%survivals
Mus musculus [35]
  T/C x100: infinity-50-100%survivals
Mus musculus [60]
  T/C x100: infinity-50-100%survivals
Mus musculus [61]
  T/C x100: infinity-50-100%survivals
Mus musculus [62]
  T/C x100: infinity-50-100%survivals
Mus musculus [63]
  T/C x100: infinity-50-100%survivals
